Results published in patent US20230321237A1, “REGULATORY T CELL EPITOPES” (EPIVAX, INC., priority 2020, published 2023).

Tests used:
[1] = tested on: CD4 T cells in donor PBMC stimulated with Tetanus Toxoid; type: cell-based, human
[2] = tested on: CD4+ effector memory T cells in PBMC; type: cell-based, human
[3] = tested on: soluble HLA class II molecules (human DR molecules); settings: cited from earlier work
[4] = tested on: PBMCs from lupus patients; settings: cited from earlier work
[5] = target: T1, Recombinant human cathepsin B (Homo sapiens, UniProt P07858); assay: Cathepsin B cleavage of the Val-Cit site; type: biochemical; settings: 0.01 ug rhCathepsin B, 10 uM peptide substrate, RT 15 min, mass spec
T1 construct: purchased R&D Systems 953-CY
Procedure: Recombinant human cathepsin B (catalog 953-CY of R&D Systems™) can be used to evaluate the cleavage of the Val-Cit site engineered into the Tregitope peptide. The activity assay protocol can be used according to the R&D Systems™'s recommendations with final assay conditions of 0.01 ug rhCathepsin B and 10 uM of peptide substrate. After incubation of Cathepsin B with purified peptides (at RT for 15 min). The peptide can be evaluated by mass spec using the Qstar XL Pro™.

[6] = CRIM-negative infantile Pompe disease patients; cited from earlier work
[7] = tested on: Class II HLA alleles HLA-DRB1*0101, *0301, *0401, *0701, *0801, *0901, *1101, *1301, *1501; assay: HLA Binding Assay with soluble HLA molecules (competition with labeled control peptide); parameters: species or system human; settings: FIG. 18
Procedure: HLA Binding Assay. Binding activity was analyzed at EpiVax (Providence, Rhode Island). The binding assay used (Steere A C et al., (2006), J Exp Med, […]:961-73) yielded an indirect measure of peptide-MHC affinity. Soluble HLA molecules were loaded onto a 96-well plate with the unlabeled experimental Tregitopes and labeled control peptide. Once the binding mixture reached steady equilibrium (at 24 hours), the HLA-Tregitope complexes were captured on an ELISA plate coated with anti-human DR antibody and detected with a Europium-linked probe for the label (PerkinElmer, Waltham, MA). Time-resolved fluorescence measuring bound labeled control peptide is assessed by a SpectraMax® M5 unit (Spectramax, Radnor, PA). Binding of experimental Tregitopes was expressed as the percent inhibition of the labeled control peptide ([…]). The percent inhibition values for each experimental Tregitope (across a range of molar concentrations) were used to calculate the concentration at which it inhibits 50% of the labeled control […] specific binding, i.e. the Tregitope's IC50.
Selected experimental Tregitopes were solvated in DMSO. The diluted Tregitopes were then mixed with binding reagents in aqueous buffering solution, yielding a range of final concentrations from 100,000 nM down to 100 nM. […]

For AAALVSLATAALLGHI [SEQ ID NO: 3], the “effect on CD4 proliferation” value [1] was “little effect”.

With “AHGVFLLNSNAMDVVLQ (listed as Homo sapiens) [SEQ ID NO: 5]” the “ratio of T regulatory cells to T effector cells” value [1] was “good ratios”.

With “SHRLLAVCALVSLATAA (listed as Homo sapiens) [SEQ ID NO: 1]” the “suppression of activated effector CD4+ T cells (CD4+/CD25hi/FoxP3int) reacting to Tetanus Toxoid” value [2] was “Suppressed” and the “ratio of T regulatory cells to T effector cells” value [1] was “best ratios”.

For RIHMVYSKRSGKPRGYAFIEY [peptide 131-151], the “binding to human DR molecules” value [3] is given as “binds to a large panel of human DR molecules” and the “randomly selected lupus patients whose PBMCs contain T cells that proliferate in response to the peptide” value [4] is given as 40%.

In the case of PEG12, the “cleavage of the Val-Cit site by Cathepsin B” value [5] is reported as “successful cleavage”.

In the case of “rhGAA: recombinant human acid alpha-glucosidase for enzyme replacement therapy”, the “antibody titers reactive to administered rhGAA” value [6] is given as “high antibody titers”.

In the case of “KDILTLRLDVMMETE (listed as Homo sapiens) [SEQ ID NO: 4]”, the “initial HLA binding results compared with prediction” value [7] is reported as “high false negative” and the “effect on CD4 proliferation” value [1] is reported as “little effect”.

For “ILTIHFTGHSFIYGK (listed as Homo sapiens) [SEQ ID NO: 74, known Tregitope used as positive control in the TTBSA, reference compound]”, the “inhibition of CD4 T cell proliferation (CFSE low)” value [1] was “successfully inhibit” and the “proliferation of regulatory T cells” value [1] was “increased proliferation”.

In the case of “PRELSGSSPVLEETH (listed as Homo sapiens) [SEQ ID NO: 7]”, the Tregitope suppressive activity [1] is reported as “demonstrated Tregitope suppressive activity”, the “effect on CD4 proliferation” value [1] is reported as “little effect” and the “inhibition of CD4 T cell proliferation (CFSE low)” value [1] is reported as “little effect”.

With “Tetanus Toxoid: proliferation stimulant (Astarte Biologics) in the TTBSA [reference compound]” the “activated (CD25 high) CD4 T cells also proliferating (CFSE low)” value [2] was “approximately 90%” and the “CD4 proliferation caused by the stimulant” value [1] was “caused CD4 proliferation”.
